Our source for the mass density values is the NIST ThermoML archive (doi:10.1016/j.jct.2018.07.014).

For the series the following is noted: 101.33 kPa, Liquid, buoyancy.

± gives the expanded uncertainty stated by the source.

With `Cc1cc(C)cc(C)c1` [1,3,5-trimethylbenzene], the mass density (298.2 K) came to 859.7 ± 2.9 kg/m3. Still for that read-out and setting: in the case of `CCCCC(C)=O` [2-hexanone] it was 806.37 ± 2.8 kg/m3.

As for `Cc1ccccc1O` [2-methylphenol], for the setting “323.2 K”, the mass density is 1018.8 ± 3.2 kg/m3.

For `Cc1cccc(O)c1` [3-methylphenol], where the note is “323.2 K”, the mass density turned out to be 1009.2 ± 3.1 kg/m3. Same read-out and setting: in the case of `Cc1ccc(O)cc1` [4-methylphenol] it was 1011.3 ± 3.2 kg/m3.

`CCCOC(C)=O` [propyl ethanoate]: the mass density (298.2 K) is reported as 881.51 ± 2.9 kg/m3.

For orientation: mass density means mass per unit of volume.
